# Laboratory results from US7375124B2, “Use of α-phenylthiocarboxylic and α-phenyloxycarboxylic acids with serum-glucose-lowering and serum-lipid-lowering activity” (Sigma-Tau Industrie Farmaceutiche Riunite S.p.A., priority 2002, dated 2008).
# Like-named read-outs stand apart in the source and are kept apart here.
# Experiments:
# C57BL/KsJ db/db mouse [1] = conditions: in vivo
# Text: (§1) Plasma levels of glucose, insulin, triglycerides, cholesterol, free fatty acids and urea were checked for a well-matched distribution of mice in the treatment groups.
# (§2) At the start of treatment the body weights of the mice were checked and arrangements were made for monitoring water and feed consumption.
# (§3) In the course of the experiment, serum glucose levels, oral glucose tolerance test (OGTT) findings, a number of lipid status parameters and weight gain were monitored.
# C57BL/KsJ db/db mouse [2] = test: Antidiabetic and serum-lipid-lowering activity in the db/db mouse (Experiments I and II); conditions: for Variation % (AUC glucose at OGTT) vs control / AUC glucose at OGTT: OGTT glucose 3 g/kg; for AUC glucose at OGTT / Glucose (plasma) / Fructosamine (plasma) / HDL-choles. (plasma) / Triglycerides (plasma) / Glucose / Final b.w. / Initial b.w.: mean ± S.E.; for Glucose (plasma): postabsorption (fasting 9 a.m. to 4.30 p.m.); for Glucose (plasma) / Variation % (fructosamine) vs control / Variation % (plasma glucose) vs control / Fructosamine (plasma) / HDL-choles. (plasma) / Triglycerides (plasma): 7.5 hours after last treatment; for Glucose: blood; for Final b.w. / Initial b.w.: postabsorption condition; for Variation % (initial b.w.) vs control / Initial b.w.: initial body weight
# Text: as §1, §2, §3
# mPPARαLBD/Gal4DBD = target: T1, mPPARαLBD/Gal4DBD (Mus musculus, UniProt P23204); test: Transactivation assay mediated by mPPARαLBD/Gal4DBD in COS-7 cells (CAT reporter); type: cell-based
# T1 construct: expressed in transfected cells; host or cells: COS-7 (monkey kidney fibroblasts)
# T1 sequence (P23204 239-466 limits assumed): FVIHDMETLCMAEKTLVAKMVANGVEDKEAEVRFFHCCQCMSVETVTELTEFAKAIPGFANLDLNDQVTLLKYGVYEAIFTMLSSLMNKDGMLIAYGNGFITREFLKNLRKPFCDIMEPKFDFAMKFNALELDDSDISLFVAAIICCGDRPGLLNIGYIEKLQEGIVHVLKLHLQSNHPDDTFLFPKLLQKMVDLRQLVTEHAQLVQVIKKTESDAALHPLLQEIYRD
# Text: In this model a transactivation assay is used in which the expression vector mPPARαLBD/Gal4 DBD allows the synthesis by the transfected cell of a chimeric protein, in which the ligand binding domain (LBD) of PPARα is fused with the DNA binding domain (DBD) of the transcription factor GAL4 of yeast [Luckow B. et al., Nucleic Acids Res. 15, 5490 (1987)]. Simultaneously, a plasmid (pG5CAT) is transfected which contains 5 copies of the high-affinity binding site for GAL4 (also called UAS, upstream activating sequence), upstream of the viral promoter E1b fused with the CAT reporter gene [Moya-Camarena S. Y. et al., J. Lipid Res. 40 (8), 1426-33 (1999)]. This model eliminates interference by possible endogenous receptors.
# This is due to the fact that the activation of E1b and the production of CAT will occur exclusively thanks to the interaction of GAL4 DBD with its own response element (UAS). Since the transcription factor GAL4 is not expressed in […] cells, transactivation of the reporter gene can take place only when, as a result of the interaction of a ligand with the LBD of PPARα, the chimeric protein PPARα/GAL4 recognises the UAS sequence on the plasmid pG5CAT. Together with the expression vector and the reporter vector the cells were also transfected with the plasmid pCH110 which provides the internal control for the efficiency of transfection and the normalisation of the results.
# A monkey kidney fibroblast cell line (COS-7) was used [Elbrecht A. et al., J. Biol. Chem. 274 (12), 7913-22 (1999)]. The cells were co-transfected with the reporter vector, the expression plasmid coding for the fusion protein Gal4 DBD/PPARαLBD and the control vector pCH110. The cells were exposed to increasing concentrations of the study compounds and CAT activity was evaluated. Untreated cells were used as controls.
# Monkey kidney fibroblasts (COS-7) were cultured according to the usual cell culture techniques, at 37° C. in a 5% v/v carbon dioxide atmosphere using as the growth medium DMEM (Dulbecco's modified Eagle's medium) modified with 3.7 g/l of sodium bicarbonate, 4 mM L-glutamine, 4.5 g/l of glucose, 1 mM sodium pyruvate and 10% v/v of foetal bovine serum, in the presence of streptomycin 100 μg/ml and penicillin 100 U/ml final.
# The cells were co-transfected using the transfection reagent FuGENE6 (Roche), consisting of a defined mixture of lipids capable of complexing the DNA and of transporting it into the cells. Twenty-four hours prior to transfection the cells were plated at a density of 1.2×10^5 cells/well in 12-well plates and maintained at 37° C. in a 5% v/v CO2 atmosphere. […] Briefly, the transfection mixture containing 0.8 μg of the expression vector, 1.6 μg of the reporter vector, 0.8 μg of the control vector and 9 μl of the FuGENE6 reagent per well was added directly to the cells in the presence of culture medium devoid of serum. After 5 hours, the transfection medium was replaced by 1 ml of culture medium complete with serum and antibiotics in the presence or absence of the molecules to be tested at 3 different concentrations (2, 20 and 100 μM). Wy-14,643 (2 μM), a known ligand of PPARα, was used as the positive reference compound.
# After 48 hours' incubation at 37° C. in a 5% v/v CO2 atmosphere, the cells were washed twice with 1 ml of phosphate buffer (PBS) and removed mechanically from the wells in TEN buffer (Tris[hydroxymethyl]aminomethane 10 mM pH 8, ethylenediamine-tetraacetic acid 1 mM pH 8, sodium chloride 0.1 M). After centrifuging for 3 minutes at 1000 rpm, the cells were resuspended in 65 μl of lysis buffer (Tris-HCl 0.25 M, pH 8) and then lysed thanks to three rapid freeze-thaw cycles. The insoluble cellular materials (debris) were removed by centrifuging at 15,000 rpm for 15 minutes at 4° C., and the supernatant was recovered and used for the CAT and β-galactosidase activity assays. […]
# [3] = Experiment I, after 12 days' treatment, feeding state, approx. 15 hours after last treatment
# [4] = Experiment I, after 12 days' treatment, postabsorption, 8 hours after last treatment
# [5] = Experiment I, after 18 days' treatment
# [6] = Experiment I, after 18 days' treatment, fasting 18 hours, 5 hours after last treatment
# [7] = Experiment I, after 18 days' treatment, fasting 18 hours, 6 hours after last treatment
# [8] = Experiment I, after 25 days' treatment
# [9] = Experiment I, after 25 days' treatment, postabsorption
# [10] = Experiment I, after 12 days' treatment, postabsorption (fasting 9 a.m. to 5 p.m.), 8 hours after last treatment
# [11] = Experiment I, db/db mice, oral twice daily, after 12 days' treatment, feeding state, approx. 15 hours after last treatment
# [12] = Experiment II, after 11 days' treatment, fasting 18 hours, 5 hours after last treatment
# [13] = Experiment II, after 12 days' treatment
# [14] = Experiment II, after 12 days' treatment, postabsorption
Structure (SMILES),Variation % (glucose) vs control (C57BL/KsJ db/db mouse [2]; [3]),Variation % (glucose) vs control (C57BL/KsJ db/db mouse [2]; [4]),Variation % (AUC glucose at OGTT) vs control (C57BL/KsJ db/db mouse [2]; [5]) [%],AUC glucose at OGTT (C57BL/KsJ db/db mouse [2]; [6]) [a.u.],Variation % (glucose) vs control (C57BL/KsJ db/db mouse [2]; [7]) [%],Variation % (HDL-cholesterol) vs control (C57BL/KsJ db/db mouse [2]; [8]),Variation % (triglycerides) vs control (C57BL/KsJ db/db mouse [2]; [8]) [%],Glucose (plasma) (C57BL/KsJ db/db mouse [2]; [8]),Variation % (fructosamine) vs control (C57BL/KsJ db/db mouse [2]; [9]),Variation % (plasma glucose) vs control (C57BL/KsJ db/db mouse [2]; [9]),Fructosamine (plasma) (C57BL/KsJ db/db mouse [2]; [9]),HDL-choles. (plasma) (C57BL/KsJ db/db mouse [2]; [9]),Triglycerides (plasma) (C57BL/KsJ db/db mouse [2]; [9]) [mg/dL],Glucose (C57BL/KsJ db/db mouse [2]; [10]) [mg/dL],Glucose (C57BL/KsJ db/db mouse [2]; [7]),Glucose (C57BL/KsJ db/db mouse [2]; [11]) [mg/dL],"Activation of reporter gene CAT as a percentage of the reference compound (WY-14,643 2 μM = 100%) (mPPARαLBD/Gal4DBD; 2 μM) [%]","Activation of reporter gene CAT as a percentage of the reference compound (WY-14,643 2 μM = 100%) (mPPARαLBD/Gal4DBD; 20 μM) [%]","Activation of reporter gene CAT as a percentage of the reference compound (WY-14,643 2 μM = 100%) (mPPARαLBD/Gal4DBD; 100 μM) [%]",further results
"CC(C)(Oc1ccc(CCNC(=O)c2ccc(Cl)cc2)cc1)C(=O)O [Bezafibrate, bezafibrate, reference compound]",+3%,+2%,−13,44476 ± 1827,−13,+14%,−7,536 ± 22 mg/dL,+26%,+18%,1.01 ± 0.04Δ mM,93.8 ± 3.8 mg/dL,88.3 ± 12.7,421 ± 30,298 ± 21 mg/dL,503 ± 21,,,,Final b.w. (C57BL/KsJ db/db mouse [1]): 35.2 ± 1.3 g; Initial b.w. (C57BL/KsJ db/db mouse [1]): 33.7 ± 0.7 g; Variation % (final b.w.) vs control (C57BL/KsJ db/db mouse [1]): +24%; Variation % (initial b.w.) vs control (C57BL/KsJ db/db mouse [1]): +6%
"COC(=O)C(C)(C)Sc1cccc(OCCc2ccc(Cl)cc2)c1 [Example 1, methyl 2-[3-[2-(4-chlorophenyl)ethoxy]phenylthio]isobutyrate]",−38%,−48%,−52,24527 ± 889,−58,+20%,−53,206 ± 8Δ mg/dl,−49%,−55%,0.41 ± 0.04 mM,98.0 ± 3.5[…] mg/dl,45.3 ± 2.3,216 ± 16,144 ± 3Δ mg/dl,303 ± 16,44.9,129.9,232.1,"Variation % (final b.w.) vs control (C57BL/KsJ db/db mouse [2]; [8]): +27%; Final b.w. (C57BL/KsJ db/db mouse [2]; Experiment I, final body weight after 25 days' treatment): 35.9 ± 0.6 g; Variation % (initial b.w.) vs control (C57BL/KsJ db/db mouse [2]; Experiment I): +2%; Initial b.w. (C57BL/KsJ db/db mouse [2]; Experiment I): 32.3 ± 0.3 g; Variation % (glucose) vs control (C57BL/KsJ db/db mouse [2]; Experiment II, after 9 days' treatment, postabsorption, 8 hours after last treatment): −36%; Variation % (AUC glucose at OGTT) vs control (C57BL/KsJ db/db mouse [2]; Experiment II, after 11 days' treatment): −40%; AUC glucose at OGTT (C57BL/KsJ db/db mouse [2]; [12]): 25929 ± 1299 a.u.; Variation % (glucose) vs control (C57BL/KsJ db/db mouse [2]; [12]): −36%; Variation % (HDL-cholesterol) vs control (C57BL/KsJ db/db mouse [2]; [13]): +43%; Variation % (final b.w.) vs control (C57BL/KsJ db/db mouse [2]; [13]): +7%; Variation % (triglycerides) vs control (C57BL/KsJ db/db mouse [2]; [13]): −48%; Glucose (plasma) (C57BL/KsJ db/db mouse [2]; [13]): 356 ± 30 mg/dL; Variation % (plasma glucose) vs control (C57BL/KsJ db/db mouse [2]; [14]): −38%; HDL-choles. (plasma) (C57BL/KsJ db/db mouse [2]; [14]): 123.7 ± 1.9 mg/dL; Triglycerides (plasma) (C57BL/KsJ db/db mouse [2]; [14]): 45.1 ± 1.4 mg/dL; Glucose (C57BL/KsJ db/db mouse [2]; Experiment II, after 9 days' treatment, postabsorption (fasting 9 a.m. to 5 p.m.), 8 hours after last treatment): 223 ± 20Δ mg/dl; Glucose (C57BL/KsJ db/db mouse [2]; [12]): 158 ± 7 mg/dL; Final b.w. (C57BL/KsJ db/db mouse [2]; Experiment II, final body weight after 12 days' treatment): 40.3 ± 0.8[…] g; Variation % (initial b.w.) vs control (C57BL/KsJ db/db mouse [2]; Experiment II): −1%; Initial b.w. (C57BL/KsJ db/db mouse [2]; Experiment II): 38.6 ± 0.4 g"
"COC(=O)C(C)(C)Sc1cccc(OCCc2ccc(Cl)cc2Cl)c1 [Example 4, methyl 2-[3-(2-(2,4-dichlorophenyl)ethoxy)phenylthio]isobutyrate]",,,,,,,,,,,,,,,,,113.1,284.9,421,
"COC(=O)C(C)(C)Sc1cccc(OCCc2ccc3ccccc3c2)c1 [Example 10, methyl 2-[3-[2-(2-naphthyl)ethoxy]phenylthio]isobutyrato]",,,,,,,,,,,,,,,,,98.1,360,462.7,
